Measured values: PMC10051705, “Leishmanicidal Activity of Guanidine Derivatives against Leishmania infantum” (Tropical Medicine and Infectious Disease, 2023)

Columns and labels:
[1] = test system: peripheral blood mononuclear cells (PBMCs); experiment: in vitro cytotoxicity in PBMC (MTT); format: cell-based, human; conditions: human PBMC, 24 h, MTT
Protocol: In vitro cytotoxicity was evaluated using peripheral blood mononuclear cells (PBMCs) collected from three healthy volunteers (2 males, mean age 33; and 1 person). PBMCs were separated by density gradient using Ficoll Paque PLUS (GE Healthcare, USA), pelleted by centrifugation (400× g for 40 min), and resuspended in RPMI 1640 medium, then supplemented with 10% fetal bovine serum and 1% antibiotic solution (penicillin 5000 Units/mL + streptomycin 5000 μg/mL). After 24 h of treatment, cell viability was evaluated by the modified colorimetric method based on the tetrazolium dye MTT (3-(4,5-dimethylthiazol-2-yl)-2,5- diphenyltetrazolium bromide). The MTT assay was used for in vitro cytotoxicity as previously described with the following modifications: cells were exposed to serially diluted concentrations of LQOFG-2, LQOFG-6, LQOFG-7 (1000 to 7.8 µM), and AmB (100 to 0.78 µM). The plates were kept at 37 °C for 24 h. MTT (5 mg/mL) was added and incubated for 4 h at 37 °C, after which the plates were centrifuged, the supernatant was discarded, and DMSO was added, leaving the plates under stirring to solubilize the formazan salts. Absorbance was measured at 540 nm using a plate reader (ELx800; Curitiba, PR, Brazil). The mean percentage of viable cells was calculated relative to the untreated control.

[2] = test system: L. infantum promastigotes; experiment: apoptosis/necrosis profiling, annexin V/PI staining, promastigotes; format: cell-based, Leishmania infantum
Protocol: To evaluate both apoptosis and necrosis, promastigote forms of L. infantum in the log phase of growth were incubated at several concentrations based on the IC50 values of LQOFG-2 (6.35; 12.7, 25.4, and 50.8 µM) LQOFG-6 (12.2, 24.4, 48.8 and 97.6 µM), and LQOFG-7 (11.65, 23.3, 46.6 and 93.2 µM), and AmB (1.5 and 6 µM) was used as the positive control. The plates were incubated for 24 h at 26 °C ± 1 °C in a B.O.D. incubator. After incubation, the promastigotes were washed three times in cold PBS, resuspended in binding buffer (10-mM HEPES, 140-mM NaCl, and 2.5-mM CaCl2, pH 7.4), and stained using a FITC Annexin V/Dead Cell Apoptosis Kit (BD Biosciences, San Jose, CA, USA) according to the manufacturer’s instructions. The stained cells were diluted and suspended in an Annexin V binding buffer (BD Biosciences, San Jose, CA, USA). Annexin V-FITC/propidium iodide (PI)-stained cells were analyzed using a BD FACSCanto II flow cytometer (BD Biosciences, San Jose, CA, USA). The raw data were analyzed using FlowJo 10.0.7 software (TreeStar Inc., Ashland, OR, USA).

[3] = test system: human red blood cells; experiment: red blood cell lysis assay; format: cell-based; conditions: 1 h, 37 °C
Protocol: The hemolytic activities of guanidine compounds were measured using human red blood cells from healthy adults (n = 3) according to methods previously described. Briefly, 80 µL of a 5% erythrocyte/phosphate-buffered saline (PBS) suspension was mixed with 20 µL of LQOFG-2, LQOFG-6, LQOFG-7, (1000 to 7.8 µM), and AmB (100 to 0.78 µM). After incubation at 37 °C for 1 h, 200 µL of PBS (1.5 mM KH2PO4, 8.1 mM Na2HPO4, 136.9 mM NaCl, and 2.6 mM KCl, pH 7.2) was added to stop the hemolysis process, and the samples were centrifuged for 10 min at 1000× g. The supernatants were collected, and the extent of hemolysis was measured spectrophotometrically at 540 nm. The hemolysis percentage was determined as [(Abssam − Abscon)/(Abstot − Abscon) × 100], where Abssam is the absorbance of the sample, Abscon is the absorbance of the blank control (without drugs), and Abstot is the absorbance of total hemolysis (replacing the sample solution with an equal volume of ultrapure water (Direct-Q UV®, Guyancourt, France)).

[4] = test system: L. infantum promastigotes; experiment: promastigote growth inhibition assay (MTT); format: cell-based; conditions: Leishmania infantum, 72 h, 26 °C
Protocol: The promastigote forms of Leishmania (Leishmania) infantum [IOC/L0579(MHOM/BR/1974/PP75)] were cultured in Schneider’s medium, pH 7.0, supplemented with 20% heat-inactivated fetal bovine serum (FBS), 2% male human urine, 100 U/mL of penicillin, and 100 mg/L of streptomycin, and the parasites were maintained at 26 °C. The procedure to obtain the extracellular axenic amastigote form of L. infantum was based on methods previously described that were modified using a Schneider medium readjusted to pH 5.5 at 37 °C. The culture of promastigote forms in the stationary phase was centrifuged, and the medium of these cells was replaced and differentiated into axenic amastigotes by temperature and medium pH changes. Parasites were maintained in culture for no more than 20 passages.
The promastigote growth inhibition assay was performed as previously described. Promastigotes were harvested during the exponential growth phase. They were incubated in the presence and absence of several concentrations of LQOFG-2, LQOFG-6, LQOFG-7 (500 to 7.8 µM), and AmB (10 to 0.078 µM) as the positive control. The plate was incubated at 26 °C for 72 h in a biological oxygen demand (B.O.D.) incubator using a Schneider’s medium (Schneider’s Insect Medium 24.5 g/L; L-glutamine 1.8 g/L; glucose 2 g/L and sodium bicarbonate 0.4 g/L; Sigma-Aldrich—St. Louis—USA) supplemented. The growth inhibition was evaluated using an MTT assay kit (Amresco, Solon, OH, USA) according to the manufacturer’s protocol. After 4 h of incubation, 10% sodium dodecyl sulfate was added to dissolve the formazan crystals. The absorbance (540 nm) was measured using a plate reader (Biosystems model ELx800; Curitiba, PR, Brazil). […] Three independent experiments we performed in triplicate.

Row | SMILES | CC50 [1] | % cells, Early Apoptosis (AV+, PI−) ([2]; 1× IC50, 24 h) | % cells, Late Apoptosis (AV+, PI+) ([2]; 1× IC50, 24 h) | % cells, Necrosis (AV−, PI+) ([2]; 1× IC50, 24 h) | % cells, Early Apoptosis (AV+, PI−) ([2]; 4× IC50, 24 h) | % cells, Late Apoptosis (AV+, PI+) ([2]; 4× IC50, 24 h) | % cells, Necrosis (AV−, PI+) ([2]; 4× IC50, 24 h) | HC50, toxicity to red blood cells [3] | IC50 [4] | % cells, Early Apoptosis (AV+, PI−) ([2]; 0.5× IC50, 24 h) | % cells, Late Apoptosis (AV+, PI+) ([2]; 0.5× IC50, 24 h) | % cells, Necrosis (AV−, PI+) ([2]; 0.5× IC50, 24 h) | % cells, Early Apoptosis (AV+, PI−) ([2]; 2× IC50, 24 h) | % cells, Late Apoptosis (AV+, PI+) ([2]; 2× IC50, 24 h)
1 | C[C@@H]1[C@H](O)[C@@H](C)/C=C/C=C/C=C/C=C/C=C/C=C/C=C/[C@H](O[C@@H]2O[C@H](C)[C@@H](O)[C@H](N)[C@@H]2O)C[C@@H]2O[C@](O)(C[C@@H](O)C[C@@H](O)[C@H](O)CC[C@@H](O)C[C@@H](O)CC(=O)O[C@H]1C)C[C@H](O)[C@H]2C(=O)O [Amphotericin B, reference compound] | 53.8 ± 3.59 µM | 0.67 ± 0.27% | 4.30 ± 0.28% | 7.64 ± 1.17% | 0.27 ± 0.09% | 65.83 ± 1.85% | 33.10 ± 1.90% | 7.10 ± 2.09 µM | 1.5 ± 0.23 µM | – | – | – | – | –
2 | O=C(/N=C(/NCc1ccccc1)Nc1ccc(I)cc1)c1ccccc1 [LQOFG-7, (Z)-N-((benzylamine)((4-iodophenyl)amino)methylene)benzamide] | – | 0.77 ± 0.04% | 0.41 ± 0.08% | 1.19 ± 0.12% | 0.39 ± 0.08% | 0.18 ± 0.07% | – | >1000 µM | 23.6 ± 0.64 µM | 0.28 ± 0.05% | 0.47 ± 0.07% | 0.87 ± 0.17% | 0.76 ± 0.10% | 0.26 ± 0.09%
